Assay results from patent publication US12559681B2, “Solubilizing agent and solubilizing solution” (NOF CORPORATION, priority 2020, dated 2026).

Experiments:
[1] = Solubility of the hardly water-soluble substance in PBS (statement); conditions: PBS without solubilizing agent
[2] = Solubilization test of cholecalciferol (vitamin D3): turbidity (absorbance at 450 nm) of a mixture of solubilizing solution and cholecalciferol solution; assay type: physicochemical; conditions: for turbidity: 100 μL + 1 μL cholecalciferol 20 mg/mL in ethanol, absorbance 450 nm minus PBS alone; for turbidity ratio to PBS: cholecalciferol, less than 10% = dissolved
Experimental: Cholecalciferol (vitamin D3) was dissolved in ethanol at a concentration of 20 mg/mL to prepare a cholecalciferol solution. […] The cholecalciferol solution was dispensed at 1 uL/well. The mixture in each well was stirred for 1 min, and the absorbance of the mixture at a wavelength of 450 nm was measured. In addition, the absorbance of PBS alone not containing cholecalciferol at a wavelength of 450 nm was measured. The difference between the absorbance of the mixture of the solubilizing solution and the cholecalciferol solution at a wavelength of 450 nm and the absorbance of PBS alone at a wavelength of 450 nm was taken as “turbidity of a mixture of a solubilizing solution and a cholecalciferol solution”. A smaller turbidity indicates a larger amount of a hardly water-soluble substance dissolved therein.
In the same manner as in the above except that PBS was used instead of the solubilizing solution, “turbidity of a mixture of PBS and a cholecalciferol solution” (that is, difference between the absorbance of a mixture of PBS and a cholecalciferol solution at a wavelength of 450 nm and the absorbance of PBS alone at a wavelength of 450 nm) was calculated.
(§1) As an index for evaluation of whether or not cholecalciferol is dissolved, turbidity ratio to PBS was calculated by the following formula: • turbidity ratio to PBS (%)=100×(turbidity of a mixture of solubilizing solution and cholecalciferol solution)/(turbidity of a mixture of PBS and cholecalciferol solution). When the turbidity ratio to PBS was less than 10%, cholecalciferol was evaluated to have been dissolved.

[3] = Solubilization test of DL-α-tocopherol (vitamin E): turbidity at 450 nm; assay type: physicochemical; conditions: for turbidity: DL-α-tocopherol 20 mg/mL in ethanol, 1 μL/well, absorbance 450 nm minus PBS alone; for turbidity ratio to PBS: DL-α-tocopherol, less than 10% = dissolved
Experimental: DL-α-tocopherol (vitamin E) was dissolved in ethanol at a concentration of 20 mg/mL to prepare a DL-α-tocopherol solution.
In the same manner as above except that PBS was used instead of the solubilizing solution, “turbidity of a mixture of PBS and a DL-α-tocopherol solution” (that is, difference between the absorbance of a mixture of PBS and a DL-α-tocopherol solution at a wavelength of 450 nm and the absorbance of PBS alone at a wavelength of 450 nm) was calculated.
As an index for evaluation of whether or not DL-α-tocopherol is dissolved, turbidity ratio to PBS was calculated by the following formula: turbidity ratio to PBS (%)=100×(turbidity of a mixture of solubilizing solution and DL-α-tocopherol solution)/(turbidity of a mixture of PBS and DL-x-tocopherol solution). When the turbidity ratio to PBS was less than 10%, DL-α-tocopherol was evaluated to have been dissolved.

[4] = Solubilization test of lauric acid: turbidity at 450 nm; assay type: physicochemical; conditions: for turbidity: solubilizing agent 5.000% by mass in PBS, lauric acid 100 mg/mL in ethanol, 3 μL/well, absorbance 450 nm minus PBS alone; for turbidity ratio to PBS: solubilizing agent 5.000% by mass, lauric acid, less than 10% = dissolved
Experimental: Lauric acid was dissolved in ethanol at a concentration of 100 mg/mL to prepare a lauric acid solution.
In the same manner as above except that PBS was used instead of the solubilizing solution, “turbidity of a mixture of PBS and a lauric acid solution” (that is, difference between the absorbance of a mixture of PBS and a lauric acid solution at a wavelength of 450 nm and the absorbance of PBS alone at a wavelength of 450 nm) was calculated.
as §1, with “lauric acid” for “cholecalciferol”

[5] = Solubilization test of myristic acid: turbidity at 450 nm; assay type: physicochemical; conditions: for turbidity: solubilizing agent 5.000% by mass in PBS, myristic acid 100 mg/mL in ethanol, 3 μL/well, absorbance 450 nm minus PBS alone; for turbidity ratio to PBS: solubilizing agent 5.000% by mass, myristic acid, less than 10% = dissolved
Experimental: Myristic acid was dissolved in ethanol at a concentration of 100 mg/mL to prepare a myristic acid solution.
In the same manner as above except that PBS was used instead of the solubilizing solution, “turbidity of a mixture of PBS and a myristic acid solution” (that is, difference between the absorbance of a mixture of PBS and a myristic acid solution at a wavelength of 450 nm and the absorbance of PBS alone at a wavelength of 450 nm) was calculated.
as §1, with “myristic acid” for “cholecalciferol”

[6] = Solubilization test of hydrocortisone: turbidity at 450 nm; assay type: physicochemical; conditions: for turbidity: solubilizing agent 0.050% by mass in PBS, hydrocortisone 20 mg/mL in ethanol, 125 μL/well, absorbance 450 nm minus PBS alone; for turbidity ratio to PBS: solubilizing agent 0.050% by mass, hydrocortisone, less than 10% = dissolved
Experimental: Hydrocortisone was dissolved in ethanol at a concentration of 20 mg/mL to prepare a hydrocortisone solution.
In the same manner as above except that PBS was used instead of the solubilizing solution, “turbidity of a mixture of PBS and a hydrocortisone solution” (that is, difference between the absorbance of a mixture of PBS and a hydrocortisone solution at a wavelength of 450 nm and the absorbance of PBS alone at a wavelength of 450 nm) was measured.

[7] = solubilizing agent 0.025% by mass in PBS
[8] = solubilizing agent 0.025% by mass
[9] = solubilizing agent 0.050% by mass in PBS
[10] = solubilizing agent 0.050% by mass

| Compound | solubility in PBS [1] | turbidity [2, 7] | turbidity ratio to PBS [2, 8] | turbidity [2, 9] | turbidity ratio to PBS [2, 10] | turbidity [3, 9] | turbidity ratio to PBS [3, 10] | other results |
| --- | --- | --- | --- | --- | --- | --- | --- | --- |
| Cc1c(C)c2c(c(C)c1O)CCC(C)(CCCC(C)CCCC(C)CCCC(C)C)O2 (racemic) [DL-α-tocopherol, reference compound] | insoluble |  |  |  |  |  |  |  |
| CCCCCCCCCCCC(=O)O [Lauric acid] | insoluble |  |  |  |  |  |  |  |
| CCCCCCCCCCCCCC(=O)O [Myristic acid] | insoluble |  |  |  |  |  |  |  |
| CCCCCCCCSCC(C)C(=O)OCCOP(=O)([O-])OCC[N+](C)(C)C (centres unmarked) [Synthetic Example 1, 2-[3-(octylsulfanyl)-2-methylpropionyloxy]ethyl-2-(trimethylammonio)ethyl phosphate] |  | 0.0229 | 9% | 0.0132 | 5% | 0.0000 | 0% | turbidity [3, 7]: 0.0150; turbidity ratio to PBS [3, 8]: 9%; turbidity [4]: 0.0000; turbidity ratio to PBS [4]: 0%; turbidity ratio to PBS ([4]; listed as Example 4-1): less than 10%; turbidity [5]: 0.0231; turbidity ratio to PBS [5]: 5%; turbidity ratio to PBS ([5]; listed as Example 5-1): less than 10% |
| CCCCCCCCCCCCSCC(C)C(=O)OCCOP(=O)([O-])OCC[N+](C)(C)C (centres unmarked) [Synthetic Example 2, 2-[3-(dodecylsulfanyl)-2-methylpropionyloxy]ethyl-2-(trimethylammonio)ethyl phosphate] |  | 0.0080 | 3% | 0.0009 | 0% | 0.0153 | 9% |  |
| CCCCCCCCCCCCCCCCSCC(C)C(=O)OCCOP(=O)([O-])OCC[N+](C)(C)C (centres unmarked) [Synthetic Example 3, 2-[3-(hexadecylsulfanyl)-2-methylpropionyloxy]ethyl-2-(trimethylammonio)ethyl phosphate] |  | 0.0231 | 9% | 0.0139 | 6% |  |  | turbidity [6]: 0.0015; turbidity ratio to PBS [6]: 3%; turbidity ratio to PBS ([6]; listed as Example 3-3): less than 10% |
| Triton X-100 [reference compound] |  |  |  | 0.0331 | 13% | 0.2573 | 147% | turbidity ratio to PBS ([3]; solubilizing agent 0.050% by mass, listed as Comparative Example 2-2-1): not less than 10%; turbidity [6]: 0.0910; turbidity ratio to PBS [6]: 205%; turbidity [4]: 0.0002; turbidity ratio to PBS [4]: 0%; turbidity [5]: 0.0601; turbidity ratio to PBS [5]: 14% |
